Molecules are shown by their SMILES.

The assay deals with T1, recombinant MtbUGM (Mycobacterium tuberculosis, UniProt P9WIQ1).
T1 construct: made in house
T1 sequence (P9WIQ1 whole entry): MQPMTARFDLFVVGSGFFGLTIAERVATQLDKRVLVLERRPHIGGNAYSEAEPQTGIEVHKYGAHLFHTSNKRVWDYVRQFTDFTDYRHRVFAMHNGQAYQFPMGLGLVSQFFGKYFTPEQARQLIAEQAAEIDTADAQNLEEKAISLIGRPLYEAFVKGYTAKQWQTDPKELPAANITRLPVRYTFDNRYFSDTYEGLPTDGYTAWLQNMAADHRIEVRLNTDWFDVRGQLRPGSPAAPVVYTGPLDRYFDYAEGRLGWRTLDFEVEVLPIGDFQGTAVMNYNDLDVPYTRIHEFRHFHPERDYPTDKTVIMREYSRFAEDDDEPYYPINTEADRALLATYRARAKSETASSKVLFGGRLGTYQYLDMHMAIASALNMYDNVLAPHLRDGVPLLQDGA
Put plainly: biochemical. The settings on record: carboxylic acid replacements (R3).
With `COC(=O)CC1Sc2nnc(-c3cccs3)n2N=C1c1ccc(Cl)cc1` (stereo not shown) [Compound 32, Methyl-2-(6-(4-chlorophenyl)-3-(thiophen-2-yl)-7H-[1,2,4]triazolo[3,4-b][1,3,4]thiadiazin-7-yl)acetate], the “MtbUGM inhibition (in words)” value is “neither the ester nor amide variants effectively inhibit MtbUGM”. To `C=CCNC(=O)CC1Sc2nnc(-c3cccs3)n2N=C1c1ccc(Cl)cc1` (stereo not shown) [Compound 34, N-allyl-2-(6-(4-chlorophenyl)-3-(thiophen-2-yl)-7H-[1,2,4]triazolo[3,4-b][1,3,4]thiadiazin-7-yl)acetamide] belongs “neither the ester nor amide variants effectively inhibit MtbUGM”; to `COC(=O)CC1Sc2nnc(Cc3ccc(Br)cc3)n2N=C1c1ccc(Cl)cc1` (stereo not shown) [Compound 14, Methyl-2-(3-(4-bromobenzyl)-6-(4-chlorophenyl)-7H-[1,2,4]triazolo[3,4-b][1,3,4]thiadiazin-7-yl)acetate], “neither the ester nor amide variants effectively inhibit MtbUGM”. To `C=CCNC(=O)CC1Sc2nnc(Cc3ccc(Br)cc3)n2N=C1c1ccc(Cl)cc1` (stereo not shown) [Compound 35, N-allyl-2-(3-(4-bromobenzyl)-6-(4-chlorophenyl)-7H-[1,2,4]triazolo[3,4-b][1,3,4]thiadiazin-7-yl)acetamide] belongs “neither the ester nor amide variants effectively inhibit MtbUGM”.
